Literature values in patent US11818994B2, “Brachiaria endophytes and related methods” (Agriculture Victoria Services PTY LTD, priority 2015, dated 2023).

Test system: Nitrosomonas spp
Conditions: Subbarao et al. 2009

brachialactone
biocidal activity against Nitrosomonas spp: biocidal activity
